Experimental data reported in patent publication US20100273876A1, “ANTIBACTERIAL FORMULATION COMPRISING A DIALKYL SULPHOSUCCINATE AND A CARBANILIDE ANTIBACTERIAL AGENT” (priority 2007, published 2010).
Converted amounts (≈) assume the structure as drawn.

What was measured:
P. acnes NCTC 737 [1] = experiment: Minimum bactericidal concentration (MBC) assay; type: cell-based, Propionibacterium acnes; conditions: Cutibacterium acnes, NCTC737, read-out: MBC
Protocol: The propionibacteria were cultured and maintained on Wilkins-Chalgren Anaerobe Medium (agar and broth) at pH 6.0; all cultures were incubated anaerobically at 37° C. for 72 hours. This assay, normally carried out after an MIC assay, determines the rnininiurn concentration of a compound that is lethal to the micro-organism being tested. […] These samples were then individually sub-cultured on antibiotic-free agar medium, under the incubation conditions described above. Following incubation they were examined visually for microbial growth.

P. acnes PRP-059 = experiment: (S)DDA disc diffusion; type: cell-based, Propionibacterium acnes; conditions: P. acnes PRP-059 (MLS); 200 μg TCC or 50 μg DOSS per disc
Protocol: (§1) The propionibacteria were cultured and maintained on Wilkins-Chalgren Anaerobe Medium (agar and broth) at pH 6.0; all cultures were incubated anaerobically at 37° C. for 72 hours.
(§2) A sterile paper disc was impregnated with a sample of the test compound in a suitable solvent and 30 minutes allowed for the solvents to evaporate (where possible). The disc was then placed on an agar plate onto which the test micro-organism had been inoculated. The plate was then incubated under the conditions described above, following which it was examined visually for signs of microbial growth. If the test compound had antimicrobial activity, a circular zone of no growth would be obtained around the disc. The diameter of this zone of “inhibition” was measured using a ProtoCOL™ automated zone sizer (Synbiosis, Cambridge, UK). In general, a greater diameter and/or area of the zone of inhibition indicates a greater antimicrobial activity in the relevant test compound, although other factors such as test compound mobility through the agar gel may also influence the result.
(§3) Two test a compounds A and B were placed on a single paper disc and the above described DDA procedure repeated. An increase in diameter of the zone of inhibition, compared to the greater of the zone diameters for the two compounds individually, was taken to indicate potential antimicrobial synergy. In practical terms, an increase of greater than 5 mm could be treated as significant.
(§4) Both the DDA and the SDDA test may be carried out using an agar gel supplemented with lipid and/or salt to simulate some of the major components present in human skin and to assess whether these substances might reduce the antimicrobial activity observed for the test compound. Performance under these conditions can provide a more reliable indication of activity on topical application. The supplements used in Examples 1, 11, 12 and 13 below were lipid (either Tween™ 80 at 1% v/v (Example 1) or triolein at 1% v/v (Examples 11, 12 and 13) and sodium chloride (100 mM).

P. acnes PRP-053 = experiment: (S)DDA disc diffusion; type: cell-based, Propionibacterium acnes; conditions: P. acnes PRP-053 (Tet/MLS); 200 μg TCC or 50 μg DOSS per disc
Protocol: as §1, §2, §3, §4

P. acnes PRP-008 = experiment: (S)DDA disc diffusion; type: cell-based, Propionibacterium acnes; conditions: P. acnes PRP-008 (Clin); 200 μg TCC or 50 μg DOSS per disc
Protocol: as §1, §2, §3, §4

P. acnes PRP-068 = experiment: (S)DDA disc diffusion; type: cell-based, Propionibacterium acnes; conditions: P. acnes PRP-068 (Ery); 200 μg TCC or 50 μg DOSS per disc
Protocol: as §1, §2, §3, §4

P. acnes PRP-003 = experiment: (S)DDA disc diffusion; type: cell-based, Propionibacterium acnes; conditions: P. acnes PRP-003 (Tet); 200 μg TCC or 50 μg DOSS per disc
Protocol: as §1, §2, §3, §4

P. acnes PRP-102 = experiment: (S)DDA disc diffusion; type: cell-based, Propionibacterium acnes; conditions: P. acnes PRP-102 (Tet/MLS); 200 μg TCC or 50 μg DOSS per disc
Protocol: as §1, §2, §3, §4

P. acnes PRP-002 = experiment: (S)DDA disc diffusion; type: cell-based, Propionibacterium acnes; conditions: P. acnes PRP-002 (Tet/MLS); 200 μg TCC or 50 μg DOSS per disc
Protocol: as §1, §2, §3, §4

P. acnes PRP-010 = experiment: (S)DDA disc diffusion; type: cell-based, Propionibacterium acnes; conditions: P. acnes PRP-010 (MLSK); 200 μg TCC or 50 μg DOSS per disc
Protocol: as §1, §2, §3, §4

P. acnes PRP-023 = experiment: (S)DDA disc diffusion; type: cell-based, Propionibacterium acnes; conditions: P. acnes PRP-023 (MLSK); 200 μg TCC or 50 μg DOSS per disc
Protocol: as §1, §2, §3, §4

P. granulosum PRP-021 = experiment: (S)DDA disc diffusion; type: cell-based, Propionibacterium granulosum; conditions: P. granulosum PRP-021 (MLS); 200 μg TCC or 50 μg DOSS per disc
Protocol: as §1, §2, §3, §4

P. granulosum PRP-005 = experiment: (S)DDA disc diffusion; type: cell-based, Propionibacterium granulosum; conditions: P. granulosum PRP-005 (MLSK); 200 μg TCC or 50 μg DOSS per disc
Protocol: as §1, §2, §3, §4

P. granulosum PRP-043 = experiment: (S)DDA disc diffusion; type: cell-based, Propionibacterium granulosum; conditions: P. granulosum PRP-043 (MLS); 200 μg TCC or 50 μg DOSS per disc
Protocol: as §1, §2, §3, §4

P. granulosum PRP-055 = experiment: (S)DDA disc diffusion; type: cell-based, Propionibacterium granulosum; conditions: P. granulosum PRP-055 (resistance None); 200 μg TCC or 50 μg DOSS per disc
Protocol: as §1, §2, §3, §4

P. acnes NCTC 737 [2] = experiment: Disc diffusion / synergy disc diffusion assay ((S)DDA); type: cell-based, Propionibacterium acnes; conditions: for (S)DDA: diluted 1:2 with placebo, 10 μl per disc; for SDDA with DOSS: 200 μg TCC + 50 μg DOSS on one disc
Protocol: as §1, §2, §3, §4

[3] = unsupplemented, with respect to the TCC

## O=C(Nc1ccc(Cl)cc1)Nc1ccc(Cl)c(Cl)c1 [TCC, N-(4-chlorophenyl)-N′-(3,4-dichlorophenyl) urea]
P. acnes NCTC 737 [1]
  MBC: 31.2 µg/mL (≈ 99 µM)
P. acnes PRP-059
  DDA: 19.73 mm
P. acnes PRP-053
  DDA: 21.58 mm
P. acnes PRP-008
  DDA: 14.80 mm
P. acnes PRP-068
  DDA: 22.30 mm
P. acnes PRP-003
  DDA: 23.64 mm
P. acnes PRP-102
  DDA: 14.59 mm
P. acnes PRP-002
  DDA: 34.22 mm
P. acnes PRP-010
  DDA: 22.81 mm
P. acnes PRP-023
  DDA: 21.27 mm
P. granulosum PRP-021
  DDA: 0.00 mm
P. granulosum PRP-005
  DDA: 12.13 mm
P. granulosum PRP-043
  DDA: 8.84 mm
P. granulosum PRP-055
  DDA: 17.16 mm
P. acnes NCTC 737 [2]; 200 μg of each test compound per disc (Example 2)
  DDA: 15.69 mm
P. acnes NCTC 737 [2]; 0.1% w/w TCC solution
  (S)DDA: 0.00 mm
P. acnes NCTC 737 [2]; 0.2% w/w TCC solution
  (S)DDA: 0.00 mm
P. acnes NCTC 737 [2]; 0.3% w/w TCC solution
  (S)DDA: 30.10 mm
P. acnes NCTC 737 [2]; supplemented with salt & lipid
  SDDA area increase: ∞
  SDDA increase: 10.57 mm
  SDDA with DOSS: 10.57 mm
P. acnes NCTC 737 [2]; supplemented with salt (sodium chloride 100 mM) & lipid (Tween 80 1% v/v), 50 μg DOSS or 200 μg TCC per disc
  DDA: 0.00 mm
P. acnes NCTC 737 [2]; unsupplemented, 50 μg DOSS or 200 μg TCC per disc
  DDA: 18.76 mm
P. acnes NCTC 737 [2]; unsupplemented
  SDDA with DOSS: 29.95 mm
P. acnes NCTC 737 [2]; [3]
  SDDA area increase: 154.9%
  SDDA increase: 11.19 mm
